Source: patent publication US9241951B2, “Of gastrointestinal health, immunity and performance by dietary intervention” (BIOATLANTIS LTD, priority 2009, dated 2016)

What was measured:
Type in all cases: in vivo, pig
[1] = VFA analysis and digesta pH in ileum, caecum and colon, Example 5; details: for total VFAs: increasing LAM
Description: 21 pigs with an initial weight of 17.9±2.2 Kg were assigned to one of the 3 dietary treatments: (T1) control; (T2) basal diet+300 ppm LAM; (T3) basal diet+600 ppm LAM. Experimental feeding continued for 21 days ad libitum. Diets were formulated to have similar digestible energy (DE) (14.4 MJ/Kg) and ileal digestible lysine (12.5 g/Kg). Post-slaughter, digestive tract was removed by dissection and digesta was removed from the ileum. Each digesta sample was serially diluted in maximum recovery diluent (MRD, Oxoid, Basingstoke, UK), and spread plated onto selective agars. Bifidobacteria, Lactobacilli and Enterobacteria species were isolated according to the methods described by Pierce et al. (2005). Digesta samples used to measure VFA concentration were collected from the caecum and the same location in the ileum and colon. VFA analysis was performed using gas liquid chromatography (GLC) according to the method described by Pierce et al., (2005).

[2] = tested on: IFN-γ; assay: Cytokine gene expression after ex-vivo LPS tissue challenge of ileum and colon, Example 5; details: ileum, ex-vivo LPS challenge (10 μg/ml, 90 minutes)
Description: (§1) 21 pigs with an initial weight of 17.9±2.2 Kg were assigned to one of the 3 dietary treatments: (T1) control; (T2) basal diet+300 ppm LAM; (T3) basal diet+600 ppm LAM. Experimental feeding continued for 21 days ad libitum. Diets were formulated to have similar digestible energy (DE) (14.4 MJ/Kg) and ileal digestible lysine (12.5 g/Kg).
(§2) Ileal and colonic tissues were sampled from the same location as described for digesta samples. Excised tissues were emptied by dissecting them along the mesentery and rinsing them using sterile phosphate buffered saline (PBS) (Oxoid). Tissue sections 1 cm^3, which had been stripped of the overlying smooth muscle were cut from each tissue. Two sections from each tissue were placed in 1 ml of Dulbecco's Modified Eagle's Medium (DMEM) (Gibco), one in the presence of bacterial lipopolysaccharide (LPS) (Sigma Aldrich) at a concentration of 10 μg/ml. The other tissue sample was used as a control and incubated in sterile DMEM in the absence of LPS. Both challenged and unchallenged tissues were incubated at 37° C. for 90 minutes before being removed, blotted dry and weighed. Approximately 1-2 g of porcine ileum and colon tissues were cut into small pieces and collected in 15 ml of RNAlater® (Applied Biosystems, Foster City, Calif.). RNAlater® was removed before storing the samples at −80° C. until used for RNA extraction.
(§3) Tissue samples for RNA extraction were removed from −86° C. and homogenised. 500 μl of lysis solution/2-ME was added to each sample and these were mechanically disrupted using one 5 mm stainless steel bead per sample. These were then placed in a Tissue Lyser (Qiagen) and lysates were homogenised for 3 mins and transferred to a GenElute Filtration Column (Sigma Aldrich) and RNA was extracted. 1 µg of total RNA was used for cDNA synthesis using oligo(dT)20 primer in a final reaction volume of 20 μl with Superscript™ III First-Strand synthesis system for reverse transcriptase-polymerase chain reaction (RT-PCR) (Invitrogen Life Technologies, Carlsbad, Calif.). At the last step of cDNA synthesis, treatment with E. coli RNase H (Invitrogen Corp.) was performed to digest the remaining RNA/mRNA template, resulting in the production of the single-stranded cDNA template for subsequent qRT-PCR reactions.
(§4) All porcine primers for the cytokine genes interferon gamma (IFN-γ), interleukin-1α (IL-1α), IL-6, IL-8, IL-10, IL-17, tumour necrosis factor (TNF-α), the mucin genes (MUCs 1, 2, 4, 5AC, 12, 13 and 20) and three reference genes, β-actin (ACTB), Glyceraldehyde-3-phosphate dehydrogenase (GAPDH) and Peptidylprolyl isomerase A (PPIA), were designed using Primer Express™ (PE Applied Biosystems, Foster City, Calif.) and synthesised by MWG Biotech (Milton Keynes, UK). These reference genes were previously validated for use in porcine tissue and qPCR was then carried out on the cDNA using the ABI PRISM 7900HT Fast sequence detection system for 96-well plates (Applied Biosystems, Foster City, Calif.). All samples were prepared in duplicate using SYBR Green Fast PCR Master Mix (Applied Biosystems, Foster City, Calif.), cDNA as template and specific primers for the genes selected. For each reaction 5 μl cDNA, 1.2 μl (forward and reverse primer mix, 5 μM), 10 μl Fast SYBR Green PCR Master Mix (PE Applied Biosystems, Foster City, Calif.) was added and made up to a final volume of 20 μl. The two step PCR program was as follows: 95° C. for 10 minutes for 1 cycle followed by 95° C. for 15 seconds and 60° C. for 1 minute for 40 cycles. The raw Ct values for the reference genes were converted to relative quantities using the formula Q=E ^ΔCt where E is the PCR efficiency of the assay and ^ΔCt is the value calculated for the difference between the lowest Ct value for each gene minus the Ct value of the sample in question. The relative quantities of the endogenous controls were then analysed for stability in geNorm (Vandesompele et al., 2002). […]

[3] = tested on: IL-10; assay: as above; details: ileum, ex-vivo LPS challenge (10 μg/ml, 90 minutes)
Description: as §1, §2, §3, §4

[4] = tested on: IL-17; assay: as above; details: ileum, ex-vivo LPS challenge (10 μg/ml, 90 minutes)
Description: as §1, §2, §3, §4

[5] = tested on: IL-1α; assay: as above; details: ileum, ex-vivo LPS challenge (10 μg/ml, 90 minutes)
Description: as §1, §2, §3, §4

[6] = tested on: IL-6; assay: as above
Description: as §1, §2, §3, §4

[7] = tested on: IL-8; assay: as above
Description: as §1, §2, §3, §4

[8] = tested on: TNF-α; assay: as above; details: ileum, ex-vivo LPS challenge (10 μg/ml, 90 minutes)
Description: as §1, §2, §3, §4

[9] = ileum, ex-vivo LPS challenge (10 μg/ml, 90 minutes)

laminarin
digesta pH ([1]; any intestinal region): no significant alteration | total VFAs ([1]; caecum): significant increase | total VFAs ([1]; ileum or colon): no significant effects | IFN-γ gene expression [2]: no effect | IL-10 gene expression [3]: no effect | IL-17 gene expression [4]: no effect | IL-1α gene expression [5]: no effect | IL-6 expression ([6]; colon, LPS-challenged tissue, LAM 300 ppm): increase | IL-6 gene expression [6, 9]: no effect | IL-8 gene expression ([7]; colon, LPS-challenged tissue, increasing LAM): linear increase | IL-8 gene expression [7, 9]: no effect | TNF-α gene expression [8]: no effect
